Source: PubChem BioAssay AID1552 (Sanford-Burnham Center for Chemical Genomics, 2009)
Active and inactive are the calls of the source. No rule for the calls is given here.

Molecular target: Ubiquitin-conjugating enzyme E2 N (Homo sapiens) (UniProt P61088)
Experiment: NMR detection of UBE2N ligand binding – biophysical, purified protein (AID 1552)
Details: NMR binding to purified UBE2N

Ubiquitin-conjugating enzyme E2 N (Homo sapiens), sequence (P61088 whole entry, looked up): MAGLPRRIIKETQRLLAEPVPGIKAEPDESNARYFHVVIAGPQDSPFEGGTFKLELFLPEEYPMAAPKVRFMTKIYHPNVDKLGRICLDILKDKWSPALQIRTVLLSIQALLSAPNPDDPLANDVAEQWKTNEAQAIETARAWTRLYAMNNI

| Structure (SMILES) | Kd |
| --- | --- |
| O=C(O)c1cccc2c1OCCO2 | > 4 mM (inactive) |
| CN(C)S(=O)(=O)c1cccc(N)c1 | > 4 mM (inactive) |
| Cc1cc(O)c(NC(=O)c2ccco2)cc1C | > 4 mM (inactive) |
| COc1ccc2c(=O)c(OC)c(-c3ccccc3)oc2c1 | > 4 mM (inactive) |
| CC(C)=CC1C(C(=O)O)C1(C)C (configuration not stated) | > 4 mM (inactive) |
| Cc1ccc(N2C(=O)CC(=O)NC2=O)cc1 | > 4 mM (inactive) |
| CCCCN1C(=O)C2CC/C(=N/O)CC2C1=O (configuration not stated) | > 4 mM (inactive) |
| O=C1Cn2c(nc3ccccc32)N1c1ccccc1F | > 4 mM (inactive) |
| CC1=C/C(=C\c2c(O)[nH]c(=O)[nH]c2=O)C(C)=N1 | > 4 mM (inactive) |
| Cn1c(SCc2ccon2)nc2ccccc2c1=O | > 4 mM (inactive) |
| COc1ccc2c3c([nH]c2c1)C(C)=NCC3 | > 4 mM (inactive) |
| Cc1nnsc1C(=O)O | > 4 mM (inactive) |
| COn1c(=O)c(-c2ccco2)[n+]([O-])c2ccccc21 | > 4 mM (inactive) |
| Cc1ccccc1C(=O)Nn1cnnc1 | > 4 mM (inactive) |
| Cc1ccc(C)c(C(=O)n2cnnc2N)c1 | > 4 mM (inactive) |
| O=C(Cc1c(F)cccc1Cl)Nc1cccnc1 | > 4 mM (inactive) |
| Cc1sc2nc3n(c(=O)c2c1C)CCCS3 | > 4 mM (inactive) |
| Nc1ccc(-n2cncn2)cc1 | > 4 mM (inactive) |
| CC1CCc2cc(F)ccc2N1C(=O)c1ccc(=O)[nH]n1 (configuration not stated) | > 4 mM (inactive) |
| COC(=O)c1cc2ccccc2cn1 | > 4 mM (inactive) |
| O=C(NCc1ccccc1Cl)c1cnn2cccnc12 | > 4 mM (inactive) |
| O=C(Nc1ccc(Cl)cn1)c1cnn2cccnc12 | > 4 mM (inactive) |
| Cc1nnc(NCCN2CCOCC2)[nH]c1=O | > 4 mM (inactive) |
| Cc1nccc(-c2cccc(N)c2)n1 | > 4 mM (inactive) |

| Structure (SMILES) | Kd |
| --- | --- |
| O=c1[nH]c2ccccc2c(=O)n1CCCO | > 4 mM (inactive) |
| CC(=O)NC(NC(C)=O)c1ccccc1 | > 4 mM (inactive) |
| O=C1C=CC(=O)c2c(O)cccc21 | > 4 mM (inactive) |
| O=c1oc2c(O)c(O)cc3c(=O)oc4c(O)c(O)cc1c4c23 | > 4 mM (inactive) |
| O=c1c(O)c(-c2ccc(O)cc2O)oc2cc(O)cc(O)c12 | > 4 mM (inactive) |
| CC1=C2C(O)C(=O)OC3CC4C(C)(C)C(=O)C=C[C@]4(C)C(CC1)[C@]23C (some centres not stated) | > 4 mM (inactive) |
| CC(=O)Nc1ccc(S(=O)(=O)Nc2cc(C)on2)cc1 | > 4 mM (inactive) |
| CC1/C(=N/O)C[C@@H]2C[C@H]1C2(C)C (some centres not stated) | > 4 mM (inactive) |
| CC12CC[C@H](CC1=O)C2(C)C | > 4 mM (inactive) |
| Cc1c(CO)cnn1-c1ccc(F)cc1 | > 4 mM (inactive) |
| CCC(=O)Nc1cccc(NC(C)=O)c1 | > 4 mM (inactive) |
| S=c1[nH]ncn1-c1ccccc1 | > 4 mM (inactive) |
| Cc1ccc(S(=O)(=O)/N=C2\NC(=O)CS2)cc1 | > 4 mM (inactive) |
| N#CC(O[C@@H]1O[C@H](CO[C@@H]2O[C@H](CO)[C@@H](O)[C@H](O)[C@H]2O)[C@@H](O)[C@H](O)[C@H]1O)c1ccccc1 (some centres not stated) | > 4 mM (inactive) |
| O=C(c1ccccc1-c1ccccc1)N1CCOCC1 | > 4 mM (inactive) |
| O=C(O)CCC(=O)Nc1ccccn1 | > 4 mM (inactive) |
| N=C1/C(=C\c2ccccc2)C(=O)N=C2SC=NN12 | > 4 mM (inactive) |
| COc1cccc(Oc2ccc(N)cc2)c1 | > 4 mM (inactive) |
| O=C(Nc1cnc2ccccn2c1=O)c1ccc(F)cc1 | > 4 mM (inactive) |
| Cc1cc(=O)n2[nH]c(C)cc2n1 | > 4 mM (inactive) |
| Cc1ccccc1NC(=O)C1CCC(=O)N1 (configuration not stated) | > 4 mM (inactive) |
| CC(=O)O[C@H]1C[C@@H](OC(C)=O)C(C)(C)C2C[C@@H](OC(C)=O)[C@@]3(C)C4=CC(=O)O[C@@H](c5ccoc5)[C@]4(C)CCC3[C@]21C (some centres not stated) | > 4 mM (inactive) |
| CC(C)(OC(=O)c1ccccc1)[C@@H]1Cc2cc3ccc(=O)oc3cc2O1 | > 4 mM (inactive) |
